Experimental data published in ChEMBL document CHEMBL1201862, “PubChem BioAssay data set” (2004).
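In this assay, cells in 96-well plates receive the compound at five concentrations for 48 hours. Endpoints are linearly interpolated between the surrounding concentrations. GI50: concentration for 50% inhibition of growth.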 Active and inactive are the calls of the source. Cut-off read from the data, not from the text of the source: active = GI50 up to about 1.1 µM and inactive = higher.

Key:
Assay in all cases: growth of human tumour cells (NCI), 48 h
[1] = test system: SF-295
[2] = test system: LXFL 529
[3] = test system: HOP-92
[4] = test system: OVCAR-3
[5] = test system: RXF 393
[6] = test system: M19-MEL
[7] = test system: HOP-18
[8] = test system: HL-60
[9] = test system: SF-268
[10] = test system: 786-0
[11] = test system: XF498
[12] = test system: UACC-257
[13] = test system: TK-10
[14] = test system: ACHN
[15] = test system: SNB-19
[16] = test system: NCI-H460
[17] = test system: MOLT-4
[18] = test system: SW-620
[19] = test system: HCT-116
[20] = test system: SK-MEL-2
[21] = test system: COLO 205
[22] = test system: OVCAR-4
[23] = test system: M14
[24] = test system: SF-539
[25] = test system: OVCAR-5
[26] = test system: EKVX
[27] = test system: HOP-62
[28] = test system: HCC 2998
[29] = test system: U-251
[30] = test system: NCI-H23
[31] = test system: LOX IMVI
[32] = test system: OVCAR-8
[33] = test system: UO-31
[34] = test system: SR
[35] = test system: UACC-62
[36] = test system: NCI-H522
[37] = test system: HT-29
[38] = test system: CAKI-1
[39] = test system: NCI-H226
[40] = test system: SN12C
[41] = test system: SNB-78
[42] = test system: SNB-75
[43] = test system: IGROV-1
[44] = test system: KM-20L2
[45] = test system: SK-OV-3
[46] = test system: Malme-3M
[47] = test system: RXF 631
[48] = test system: K562
[49] = test system: KM12
[50] = test system: DLD-1
[51] = test system: HCT-15
[52] = test system: A549
[53] = test system: DMS-114
[54] = test system: CCRF-CEM
[55] = test system: SK-MEL-28
[56] = test system: A498
[57] = test system: DMS-273
[58] = test system: RPMI-8226
[59] = test system: SK-MEL-5

With `C=CC1=C(C)/C(=C/C2=NC(=C\c3[nH]c(CC4NC(=O)C(C)/C4=C\C)c(C)c3CCC(=O)O)/C(CC(=O)O)=C2C)NC1=O` (centres undefined) the GI50 [1] was > 100 µM (inactive), the GI50 [2] was > 100 µM (inactive) and the GI50 [3] was 70 µM (inactive). For the same compound, the GI50 [4] was > 100 µM (inactive), the GI50 [5] was > 100 µM (inactive) and the GI50 [6] was > 100 µM (inactive). The GI50 [7] was > 100 µM (inactive), the GI50 [8] was > 100 µM (inactive) and the GI50 [9] was > 100 µM (inactive). For the same compound, the GI50 [10] was > 100 µM (inactive), the GI50 [11] was > 100 µM (inactive) and the GI50 [12] was > 100 µM (inactive). For the same compound, the GI50 [13] was > 100 µM (inactive), the GI50 [14] was > 100 µM (inactive) and the GI50 [15] was > 100 µM (inactive). The GI50 [16] was > 100 µM (inactive), the GI50 [17] was > 100 µM (inactive) and the GI50 [18] was > 100 µM (inactive). For the same compound, the GI50 [19] was > 100 µM (inactive), the GI50 [20] was > 100 µM (inactive) and the GI50 [21] was > 100 µM (inactive). The GI50 [22] was > 100 µM (inactive), the GI50 [23] was > 100 µM (inactive) and the GI50 [24] was > 100 µM (inactive). The GI50 [25] was > 100 µM (inactive), the GI50 [26] was > 100 µM (inactive) and the GI50 [27] was > 100 µM (inactive). For the same compound, the GI50 [28] was > 100 µM (inactive), the GI50 [29] was > 100 µM (inactive) and the GI50 [30] was > 100 µM (inactive). The GI50 [31] was > 100 µM (inactive), the GI50 [32] was > 100 µM (inactive) and the GI50 [33] was > 100 µM (inactive). For the same compound, the GI50 [34] was > 100 µM (inactive), the GI50 [35] was > 100 µM (inactive) and the GI50 [36] was > 100 µM (inactive). The GI50 [37] was > 100 µM (inactive), the GI50 [38] was > 100 µM (inactive) and the GI50 [39] was > 100 µM (inactive). For the same compound, the GI50 [40] was > 100 µM (inactive), the GI50 [41] was > 100 µM (inactive) and the GI50 [42] was > 100 µM (inactive). The GI50 [43] was > 100 µM (inactive), the GI50 [44] was > 100 µM (inactive) and the GI50 [45] was > 100 µM (inactive). The GI50 [46] was > 100 µM (inactive), the GI50 [47] was > 100 µM (inactive) and the GI50 [48] was > 100 µM (inactive). For the same compound, the GI50 [49] was > 100 µM (inactive), the GI50 [50] was > 100 µM (inactive) and the GI50 [51] was > 100 µM. For the same compound, the GI50 [52] was > 100 µM (inactive), the GI50 [53] was > 100 µM (inactive) and the GI50 [54] was > 100 µM (inactive). For the same compound, the GI50 [55] was > 100 µM (inactive).

`O=[N+]([O-])c1cc([N+](=O)[O-])c(C(Cl)C(Cl)c2ccccc2)cc1C(Cl)C(Cl)c1ccccc1` (centres undefined) was tested, and the GI50 [1] was 2.15 µM (inactive), the GI50 [2] was 1.54 µM (inactive) and the GI50 [3] was 1.6 µM (inactive). The GI50 [4] was 2.2 µM (inactive), the GI50 [5] was 1.33 µM (inactive) and the GI50 [6] was 1.83 µM (inactive). The GI50 [7] was 1.46 µM (inactive), the GI50 [8] was 7.29 µM (inactive) and the GI50 [9] was 1.77 µM (inactive). For the same compound, the GI50 [10] was 1.69 µM (inactive), the GI50 [11] was 1.87 µM (inactive) and the GI50 [12] was 1.84 µM (inactive). For the same compound, the GI50 [13] was 2.34 µM (inactive), the GI50 [14] was 1.77 µM (inactive) and the GI50 [15] was 2.32 µM (inactive). For the same compound, the GI50 [16] was 2.02 µM (inactive), the GI50 [17] was 2.3 µM (inactive) and the GI50 [56] was 1.82 µM (inactive). For the same compound, the GI50 [18] was 1.61 µM (inactive), the GI50 [19] was 1.19 µM (inactive) and the GI50 [20] was 2 µM (inactive). The GI50 [21] was 1.73 µM (inactive), the GI50 [22] was 2.64 µM (inactive) and the GI50 [23] was 1.49 µM (inactive). For the same compound, the GI50 [24] was 1.8 µM (inactive), the GI50 [25] was 2.14 µM (inactive) and the GI50 [26] was 2.2 µM (inactive). The GI50 [27] was 3.66 µM (inactive), the GI50 [28] was 1.76 µM (inactive) and the GI50 [29] was 1.82 µM (inactive). For the same compound, the GI50 [30] was 1.65 µM (inactive), the GI50 [31] was 1.64 µM (inactive) and the GI50 [32] was 1.87 µM (inactive). The GI50 [33] was 1.51 µM (inactive), the GI50 [34] was 3.18 µM (inactive) and the GI50 [35] was 1.84 µM (inactive). The GI50 [57] was 2.03 µM (inactive), the GI50 [36] was 1.61 µM (inactive) and the GI50 [37] was 2.17 µM (inactive). For the same compound, the GI50 [38] was 1.71 µM (inactive), the GI50 [58] was 1.07 µM (active) and the GI50 [39] was 2.23 µM (inactive). The GI50 [40] was 1.75 µM (inactive), the GI50 [41] was 2.99 µM (inactive) and the GI50 [42] was 2.47 µM (inactive). For the same compound, the GI50 [43] was 2.46 µM (inactive), the GI50 [44] was 2.06 µM (inactive) and the GI50 [45] was 6.34 µM (inactive). For the same compound, the GI50 [46] was 1.76 µM (inactive), the GI50 [47] was 2.07 µM (inactive) and the GI50 [59] was 1.66 µM (inactive). For the same compound, the GI50 [48] was 1.69 µM (inactive), the GI50 [49] was 1.85 µM (inactive) and the GI50 [50] was 1.71 µM (inactive). For the same compound, the GI50 [51] was 1.48 µM, the GI50 [52] was 2.05 µM (inactive) and the GI50 [53] was 1.7 µM (inactive). The GI50 [54] was 2.21 µM (inactive) and the GI50 [55] was 1.9 µM (inactive).
